# Experimental data published in the supplement of paper PMC10307832.
# Compound: Cn1cnc2c(F)c(Nc3ccc(Br)cc3Cl)c(C(=O)NOCCO)cc21 [Selumetinib] + CC(=O)c1c(C)c2cnc(Nc3ccc(N4CCNCC4)cn3)nc2n(C2CCCC2)c1=O [Palbociclib] (partner 0.5 µM)
# Test: relative viability (nuclei count vs DMSO), 5 days (fraction); higher = more cells survive
# Conditions: first compound 0.2 µM
# Procedure, shortened: (§1)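 Lung cancer cell lines were seeded in 1536-well plates and dosed by pin tool the next day, with either a single drug or a fixed anchor-drug dose combined with five library-drug doses (not always all listed) spaced in √10 steps. Five days later, one step fixed the cells and stained their nuclei (final 0.05% Triton X-100, 1% formaldehyde, 1 ug/ml Hoechst), and nuclei were counted on 4× images. Relative viability is the nuclei count in treated wells divided by the count in vehicle wells, and each value is the median of duplicate plates.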
row,Cell Line,relative viability
1,PC-3 [JPC-3],0.515
2,LOU-NH91,0.546
3,NCI-H647,0.354
4,NCI-H23,0.354
5,EMC-BAC-2,0.55
6,NCI-H2126,0.35
7,HCC-44,1.01
8,NCI-H1734,0.36
9,NCI-H650,0.516
10,LK-2,0.706
11,NCI-H2228,0.669
12,NCI-H2342,0.498
13,SK-MES-1,0.315
14,HARA,0.236
15,COR-L23,0.301
16,COR-L 105,0.383
17,LC-2-ad,0.492
18,LXF-289,0.468
19,ChaGo-K-1,0.895
20,NCI-H2170,0.414
21,NCI-H322M,0.459
22,HCC-78,0.498

row,Cell Line,relative viability
1,SW 900,0.446
2,BEN,0.462
3,HCC-15,0.355
4,NCI-H1648,0.237
5,HCC-827,0.465
6,NCI-H460,0.0907
7,LU99A,0.375
8,NCI-H2085,0.415
9,A-427,0.51
10,NCI-H520,0.237
11,NCI-H838,0.201
12,NCI-H1792,0.46
13,NCI-H3122,0.132
14,NCI-H1395,0.574
15,201T,0.314
16,NCI-H1993,0.527
17,HOP-62,0.458
18,NCI-H1355,0.266
19,NCI-H2405,0.395
20,NCI-H1437,0.258
21,NCI-H661,0.418
22,CAL-12T,0.222

row,Cell Line,relative viability
1,H3255,0.339
2,NCI-H2347,0.388
3,NCI-H1975,0.467
4,NCI-H441,0.157
5,NCI-H1650,0.357
6,NCI-H1915,0.33
7,NCI-H2087,0.144
8,HCC-366,0.256
9,NCI-H1793,0.249
10,RERF-LC-KJ,0.84
11,EKVX,0.227
12,LCLC-103H,0.469
13,NCI-H1651,0.475
14,NCI-H1944,0.253
15,NCI-H2009,0.122
16,SW 1573,0.365
17,ABC-1,0.555
18,NCI-H358,0.127
19,NCI-H727,0.489
20,SK-LU-1,0.362

# Same assay, conditions: first compound 0.6325 µM
row,Cell Line,relative viability
1,NCI-H522,0.793
2,PC-14,0.309
3,NCI-H1666,0.668
4,NCI-H1755,0.422
5,NCI-H2023,0.339
6,EPLC-272H,0.232
7,LCLC-97TM1,0.19
8,PC-3 [JPC-3],0.571
9,LOU-NH91,0.535
10,NCI-H647,0.364
11,NCI-H23,0.314
12,EMC-BAC-2,0.52
13,NCI-H2126,0.333
14,HCC-44,1.09
15,NCI-H1734,0.313
16,NCI-H650,0.521
17,LK-2,0.802
18,NCI-H2228,0.481
19,NCI-H2342,0.482
20,SK-MES-1,0.264
21,HARA,0.165
22,COR-L23,0.241
23,COR-L 105,0.392
24,LC-2-ad,0.453

row,Cell Line,relative viability
1,LXF-289,0.468
2,ChaGo-K-1,0.848
3,NCI-H2170,0.414
4,NCI-H322M,0.448
5,HCC-78,0.423
6,SW 900,0.495
7,BEN,0.509
8,HCC-15,0.253
9,NCI-H1648,0.296
10,HCC-827,0.401
11,NCI-H460,0.0517
12,LU99A,0.425
13,NCI-H2085,0.355
14,A-427,0.538
15,NCI-H520,0.258
16,NCI-H838,0.203
17,NCI-H1792,0.4
18,NCI-H3122,0.153
19,NCI-H1395,0.54
20,201T,0.329
21,NCI-H1993,0.427
22,HOP-62,0.37
23,NCI-H1355,0.241
24,NCI-H2405,0.344

row,Cell Line,relative viability
1,NCI-H1437,0.224
2,NCI-H661,0.382
3,CAL-12T,0.191
4,H3255,0.339
5,NCI-H2347,0.361
6,NCI-H1975,0.388
7,NCI-H441,0.139
8,NCI-H1650,0.27
9,NCI-H1915,0.228
10,NCI-H2087,0.0937
11,HCC-366,0.143
12,NCI-H1793,0.199
13,RERF-LC-KJ,0.908
14,EKVX,0.186
15,LCLC-103H,0.439
16,NCI-H1651,0.489
17,NCI-H1944,0.231
18,NCI-H2009,0.143
19,SW 1573,0.312
20,ABC-1,0.5
21,NCI-H358,0.125
22,NCI-H727,0.423
23,SK-LU-1,0.263

# Compound: Cn1cnc2c(F)c(Nc3ccc(Br)cc3Cl)c(C(=O)NOCCO)cc21 [Selumetinib] + O=C(c1cc(Cc2n[nH]c(=O)c3ccccc23)ccc1F)N1CCN(C(=O)C2CC2)CC1 [Olaparib] (partner 8 µM)
# Test: as above
# Conditions: first compound 0.02 µM
# Procedure, shortened: as §1
row,Cell Line,relative viability
1,NCI-H522,0.676
2,PC-14,0.294
3,NCI-H1666,0.722
4,EBC-1,0.717
5,NCI-H1755,0.848
6,NCI-H2023,0.555
7,EPLC-272H,0.531
8,LCLC-97TM1,0.292
9,PC-3 [JPC-3],1.03
10,LOU-NH91,0.914
11,NCI-H647,0.608
12,NCI-H23,0.283
13,EMC-BAC-2,0.636
14,NCI-H2126,0.893
